Assay results from publication PMC12238723, “Phase I Clinical Trial of CVL218, a Novel PARP1/2 Inhibitor, in Patients with Advanced Solid Tumors” (MedComm, 2025).

System: patients with advanced solid tumors
Assay: Treatment-related adverse events (CTCAE v5.0), phase I dose escalation
Type: in vivo
Description: This study was a single‐arm, dose‐escalation phase I trial conducted in Sun Yat‐sen University Cancer Center in China. This study assessed CVL218 in patients with histologically or cytologically confirmed advanced solid tumors who were in PD after standard therapeutic regimens or lacked standard treatment options. Inclusion criteria included: age 18–75 years; with at least one measurable and evaluable target lesion per Response Evaluation Criteria in Solid Tumors 1.1 (RECIST 1.1); ECOG performance status of 0 or 1; adequate hematological, renal, cardiac, and hepatic functions and a life expectancy ≥12 weeks. Key exclusion criteria included prior usage of PARP inhibitors; allergic to the research drug or its components; with active, unstable systemic diseases or active, uncontrolled infection; a history of other malignancies within 5 years, and pregnant or lactating women.
CVL218 was administered orally, and this dose‐escalation trial included nine dose levels: 100 mg QD (50 mg BID), 200 mg QD (100 mg BID), 400 mg QD (200 mg BID), 700 mg QD (350 mg BID), 1000 mg QD (500 mg BID), 1200 mg QD (600 mg BID), 1400 mg QD (700 mg BID), 1700 mg QD (850 mg BID), and 2000 mg QD (1000 mg BID). Patients enrolled in the study received a single oral dose on the first day, followed by continuous multiple dosing (twice a day taking 12 h apart) after 72 h, with the treatment cycle lasting 4 weeks. The period during which patients received a single dose is designated as cycle 0 (C0), lasting 72 h. After this period, patients begin multiple dosing, referred to as cycle 1 (C1). An initial accelerated titration design was employed for the three lowest dose groups, and the “3+3” design was applied starting with the 300 mg BID cohort.
The primary objectives were to assess safety and tolerability as well as to determine the MTD, DLT, and dose recommended for further study. DLT was defined as any of the following events occurring during cycle 0 (including 72 h wash‐out period after a single dose) and cycle 1 per Common Terminology Criteria for Adverse Events (CTCAE) version 5.0: grade 4 anemia; grade 4 neutropenia; grade 3 neutropenia with fever ≥38.5°C; grade 4 thrombocytopenia; grade 3 thrombocytopenia associated with bleeding; grade ≥2 neurotoxicity; any other grade ≥3 nonhematological toxicities (excluding alopecia). The secondary objectives were to assess the PK and preliminary efficacy of CVL218.
Subjects who received at least one dose of CVL218 with postadministration safety records were included in safety analysis set. Subjects who received at least one dose of CVL218 with at least one evaluable PK parameter were included in PK analysis set. Per‐protocol set were used for efficacy analysis. Descriptive statistics of safety were presented per CTCAE v5.0. The PK parameters T max and T 1/2 were shown as the median (min, max) and mean ± SD, respectively. A two‐sided p < 0.05 was considered to indicate statistical significance. Statistical analysis was performed by using GraphPad prism 8.0.2 and R‐4.3.3.

CNCc1ccc(-c2cc3cc(F)cc(C(N)=O)c3o2)cc1.Cl [CVL218]
1 (25.0) n (%): Any AE related to study drug (500 mg BID, ≥G3)
1 (25) n (%): WBC count increased (500 mg BID, ALL)
0 n (%): Headache (200 mg BID, ≥G3) | Hypoalbuminemia (200 mg BID, ≥G3) | Infusion site pain (200 mg BID, ≥G3) | Laboratory test disorders (200 mg BID, ≥G3) | Limb discomfort (200 mg BID, ≥G3) | Lipase increased (200 mg BID, ≥G3) | Metabolic disorders (200 mg BID, ≥G3) | Musculoskeletal discomfort (200 mg BID, ≥G3) | Musculoskeletal disorders (200 mg BID, ≥G3) | Nausea (200 mg BID, ≥G3) | Nervous system disorders (200 mg BID, ≥G3) | Neutrophil count decreased (200 mg BID, ≥G3) | Neutrophil count increased (200 mg BID, ≥G3) | Palpitations (200 mg BID, ≥G3) | Protein urine present (200 mg BID, ≥G3) | Proteinuria (200 mg BID, ≥G3) | Rash (200 mg BID, ≥G3) | Renal & urinary disorders (200 mg BID, ≥G3) | Renal failure (200 mg BID, ≥G3) | Reproductive disorders (200 mg BID, ≥G3) | Skin disorders (200 mg BID, ≥G3) | Urinary occult blood positive (200 mg BID, ≥G3) | Vomiting (200 mg BID, ≥G3) | WBC count decreased (200 mg BID, ≥G3) | WBC count increased (200 mg BID, ≥G3) | Infusion site pain (350 mg BID, ALL) | WBC count increased (350 mg BID, ALL) | ALT increased (350 mg BID, ≥G3) | AST increased (350 mg BID, ≥G3) | Abdominal distension (350 mg BID, ≥G3) | Abdominal pain (350 mg BID, ≥G3) | Abdominal pain upper (350 mg BID, ≥G3) | Amylase increased (350 mg BID, ≥G3) | Anemia (350 mg BID, ≥G3) | Any AE related to study drug (350 mg BID, ≥G3) | Asthenia (350 mg BID, ≥G3) | Blood creatinine increased (350 mg BID, ≥G3) | Blood system disorders (350 mg BID, ≥G3) | Blood triglycerides increased (350 mg BID, ≥G3) | Blood urea increased (350 mg BID, ≥G3) | Cardiac disorders (350 mg BID, ≥G3) | Chest discomfort (350 mg BID, ≥G3) | Constipation (350 mg BID, ≥G3) | Decreased appetite (350 mg BID, ≥G3) | Diarrhea (350 mg BID, ≥G3) | Dizziness (350 mg BID, ≥G3) | Erectile dysfunction (350 mg BID, ≥G3) | Gastrointestinal disorders (350 mg BID, ≥G3) | General disorders (350 mg BID, ≥G3) | Gingival bleeding (350 mg BID, ≥G3) | Granulocyte count increased (350 mg BID, ≥G3) | Headache (350 mg BID, ≥G3) | Hypoalbuminemia (350 mg BID, ≥G3) | Infusion site pain (350 mg BID, ≥G3) | Laboratory test disorders (350 mg BID, ≥G3) | Limb discomfort (350 mg BID, ≥G3) | Lipase increased (350 mg BID, ≥G3) | Metabolic disorders (350 mg BID, ≥G3) | Musculoskeletal discomfort (350 mg BID, ≥G3) | Musculoskeletal disorders (350 mg BID, ≥G3) | Nausea (350 mg BID, ≥G3) | Nervous system disorders (350 mg BID, ≥G3) | Neutrophil count decreased (350 mg BID, ≥G3) | Neutrophil count increased (350 mg BID, ≥G3) | Palpitations (350 mg BID, ≥G3) | Protein urine present (350 mg BID, ≥G3) | Proteinuria (350 mg BID, ≥G3) | Rash (350 mg BID, ≥G3) | Renal & urinary disorders (350 mg BID, ≥G3) | Renal failure (350 mg BID, ≥G3) | Reproductive disorders (350 mg BID, ≥G3) | Skin disorders (350 mg BID, ≥G3) | Urinary occult blood positive (350 mg BID, ≥G3) | Vomiting (350 mg BID, ≥G3) | WBC count decreased (350 mg BID, ≥G3) | WBC count increased (350 mg BID, ≥G3) | Infusion site pain (500 mg BID, ALL) | ALT increased (500 mg BID, ≥G3) | AST increased (500 mg BID, ≥G3) | Abdominal distension (500 mg BID, ≥G3) | Abdominal pain (500 mg BID, ≥G3) | Abdominal pain upper (500 mg BID, ≥G3) | Amylase increased (500 mg BID, ≥G3) | Anemia (500 mg BID, ≥G3) | Asthenia (500 mg BID, ≥G3) | Blood creatinine increased (500 mg BID, ≥G3) | Blood system disorders (500 mg BID, ≥G3) | Blood triglycerides increased (500 mg BID, ≥G3) | Blood urea increased (500 mg BID, ≥G3) | Cardiac disorders (500 mg BID, ≥G3) | Chest discomfort (500 mg BID, ≥G3) | Constipation (500 mg BID, ≥G3) | Decreased appetite (500 mg BID, ≥G3) | Diarrhea (500 mg BID, ≥G3) | Dizziness (500 mg BID, ≥G3) | Erectile dysfunction (500 mg BID, ≥G3) | Gastrointestinal disorders (500 mg BID, ≥G3) | General disorders (500 mg BID, ≥G3) | Gingival bleeding (500 mg BID, ≥G3) | Granulocyte count increased (500 mg BID, ≥G3) | Headache (500 mg BID, ≥G3) | Hypoalbuminemia (500 mg BID, ≥G3) | Infusion site pain (500 mg BID, ≥G3) | Limb discomfort (500 mg BID, ≥G3) | Metabolic disorders (500 mg BID, ≥G3) | Musculoskeletal discomfort (500 mg BID, ≥G3) | Musculoskeletal disorders (500 mg BID, ≥G3) | Nausea (500 mg BID, ≥G3) | Nervous system disorders (500 mg BID, ≥G3) | Neutrophil count decreased (500 mg BID, ≥G3) | Neutrophil count increased (500 mg BID, ≥G3) | Palpitations (500 mg BID, ≥G3) | Protein urine present (500 mg BID, ≥G3) | Proteinuria (500 mg BID, ≥G3) | Rash (500 mg BID, ≥G3) | Renal & urinary disorders (500 mg BID, ≥G3) | Renal failure (500 mg BID, ≥G3) | Reproductive disorders (500 mg BID, ≥G3) | Skin disorders (500 mg BID, ≥G3) | Urinary occult blood positive (500 mg BID, ≥G3) | Vomiting (500 mg BID, ≥G3) | WBC count decreased (500 mg BID, ≥G3) | WBC count increased (500 mg BID, ≥G3) | Infusion site pain (600 mg BID, ALL) | WBC count increased (600 mg BID, ALL) | ALT increased (600 mg BID, ≥G3) | AST increased (600 mg BID, ≥G3)
